Data taken from patent US20090169490A1, “COMPOSITION AND METHOD FOR WEIGHT LOSS” (Guangzhou Konzern Pharmaceutical Co., Ltd, priority 2007, published 2009).

Assays:
[1] = test system: Diet-Induced Obesity Rat Model; experiment: Weight loss experiments in diet-induced obesity rat model; format: in vivo; settings: for difference to control group E (weight loss effect): SPSS12.0 analysis, p<0.01, versus control group E on normal feed; for average weight variation (g) after / average weight variation (g) before: obese male rats; for average weight variation (g) before: n=10 per group
Source text: Male weaned rats (each weighs 50 g) divided into 5 groups with each group 10 rats.
The rats are orally administrated L-carnitine tartrate (Group A), L-hydroxy citric acid (Group B), L-carnitine tartrate and L-hydroxy citric acid (Group C), L-carnitine tartrate and L-hydroxy citric acid and asiaticosides (Group D), respectively. For comparison, a control group E is also set herewith. The oral administration dosage is 5 times that for human (kg/day). The rats are fed with feed comprising one of the active components set forth above for continuous 30 days.
Feed preparation: the feed comprises (a) basic feed consisting of 20 wt % of barley meal, 10 wt % of dehydrated vegetables, 20 wt % of pulse flour, 1 wt % of yeast, 5 wt % of bone dust, 16 wt % of cornmeal, 16 wt % of wheat skin, 10 wt % of fish meal and 2 wt % of salt, and (b) nutritive feed selected from the group consisting of powdered milk, lard, egg and soybean sprout. 10 g of powdered milk, 10 g of lard, one egg and 250 g of soybean sprout are added per 100 g of basic feed.
In the first and second week, each rat is fed 13 g of feed per day, with an increase in the amount of the feed of 2 g every week until the sixth week ([…]). The rats are fed twice a day. After the rats are fed with the high-fat, high-nutrition feed above for 45 days, the weight of the rat fed with such feed is nearly two times that of the rat in the control group fed with normal feed (the difference may be more than 100 g).
After the establishment of the rat model, rats in different groups are orally administrated L-carnitine tartrate (Group A), L-hydroxy citric acid (Group B), L-carnitine tartrate and L-hydroxy citric acid (Group C), L-carnitine tartrate and L-hydroxy citric acid and asiaticosides (Group D). The components are blended in the feed. No additional component is added to the normal feed fed the control group.
The experiment data is analyzed by software SPSS12.0 edition, and the result are shown as below: […]

[2] = cited from earlier work
[3] = cited from earlier work; remark: listed apart in the source
[4] = after minus before, 30 days oral administration in feed, dosage 5 times that for human
[5] = fat pad around testicle and kidney, after 30 days oral administration in feed, dosage 5 times that for human
[6] = fat pad around testicle and kidney, after minus before, 30 days oral administration in feed
[7] = fat pad around testicle and kidney, before the 30 days of oral administration in feed (baseline)
[8] = after 30 days oral administration in feed, dosage 5 times that for human
[9] = before the 30 days of oral administration in feed (baseline)

| SMILES | difference to control group E (weight loss effect) [1] | average weight variation (g) variation [1, 4] [g] | average fat pad weight [1, 5] [g] | average fat pad weight [1, 6] [g] | average fat pad weight [1, 7] [g] | average weight variation (g) after [1, 8] [g] | average weight variation (g) before [1, 9] [g] | average percentage body fat variation (g) after [1, 5] [g] | average percentage body fat variation (g) variation [1, 6] [g] | average percentage body fat variation (g) before [1, 7] [g] | solubility in water [2] | in vivo half-life [3] [h] |
| --- | --- | --- | --- | --- | --- | --- | --- | --- | --- | --- | --- | --- |
| C[N+](C)(C)C[C@H](O)CC(=O)[O-].O=C(O)C(O)C(O)C(=O)O [Group A, L-carnitine tartrate] | significant | -5 | 3.93 | -2.3 | 6.23 | 98.28 | 103.28 |  |  |  |  |  |
| O=C(O)CC(O)(C(=O)O)C(O)C(=O)O [Group B, L-hydroxy citric acid] | significant | -5.8 |  |  |  | 97.32 | 103.12 | 3.81 | -2.4 | 6.21 |  |  |
| C[N+](C)(C)C[C@H](O)CC(=O)[O-] [L-carnitine] |  |  |  |  |  |  |  |  |  |  | easy to dissolve in water | 8.4 |
